From patent publication US4772602A, “N-substituted 3,4-dihydropyrimidine derivatives as agents for treating disorders of cardiovascular system” (Suntory Limited, priority 1985, dated 1988)
Read-outs that look alike come from different tables or passages of the source.

Experiments:
[1] = system: isolated guinea pig hearts (coronary artery); assay: coronary vascular dilative effect in isolated guinea pig hearts (Langendorff's method); set-up: species or system guinea pig (Heartley); conditions: 37° C., 0.1 ml administered into the coronary artery
Method: The coronary vascular dilative effect of 3N-substituted 3,4-dihydropyrimidine derivatives was tested.
Heartley guinea pigs (weight 400-500 g) were killed by a blow on the head and their hearts were immediately isolated. The hearts were perfused with Krebs-Henseleit solution bubbled with a mixture of 95% O2 +5% CO2 and maintained at 37° C. at a constant rate of 6 ml/minute according to the Langendorff's method [J. Pharmacol. Methods 2, 143 (1979)]. The perfusion pressure was measured by a pressure transducer continuously. Samples were prepared by emulsifying 1 mg of a test compound in 1 ml of a mixture of dimethylsulfoxide and physiological saline solution (1:9) and diluting with physiological saline solution to the predetermined concentration. 0.1 ml of the diluted solution was administered into the coronary artery via a rubber tube connected to an aorta cannula to obtain ED50 (μg/heart) data as shown in Table 3. The numbers of the compounds in the Table correspond respectively to those of the working examples described above.

vertebral artery [2] = assay: vascular resistance of the vertebral artery in anesthetized dogs (ED30); assay type: in vivo, dog; conditions: Canis lupus familiaris, intravenous injection
Method: The pharmacological effect (ED30) of the compounds of the present invention with respect to the vascular resistance of the vertebral artery in anesthetized dogs was treated by the following procedure.
Adult dogs of either sex (7-14 kg in body weight) were anesthetized with at first thiopental sodium (35 mg/kg, intraperitoneal), anesthetized with urethane (400 mg/kg, intravenous) and chloralose (60 mg/kg, intravenous) and kept under artificial respiration throughout the experiment. After thoracotomy at the left first intercostal space, the vertebral artery was exposed and blood flow was measured with intracorporeal flow probe connected to an electromagnetic flowmeter (MF-27, Nihon Kohden).
At the same time, continuous measurement of the following parameters was made: systemic blood pressure (mean pressure) at the right femoral artery, the limb lead II ECG, the heart rate with a tachometer triggered by the R wave of ECG, and the vascular resistance determined by loading a electronic divider unit (EO-601 G, Nihon Kohden) with the mean values of blood pressure and vertebral artery blood flow. All of these parameters were recorded simultaneously on a polygraph (RM-600, Nihon Kohden).
All the test compounds were injected through a cannula inserted into the femoral vein.
The ED30 (μg/kg) values obtained by intravenous injection are listed in Table 4, wherein the Compound Numbers are keyed to the Example Numbers.

[3] = system: conscious spontaneously hypertensive rats (SHR); assay: hypotensive action in conscious spontaneously hypertensive rats (SHR); assay type: in vivo, rat (SHR); conditions: 10 mg/kg orally
Method: A selected compound of the present invention was tested for its hypotensive action in conscious spontaneously hypertensive rats (SHR).
A group of 17 to 20-week old male SHR were anesthetized with ether and a cannula was inserted into the left femoral artery. At least one day after the operation, the cannula was connected to a pressure transducer and the blood pressure was measured continuously under conscious and unrestrained condition, thereby obtaining the data shown in Table 6. The test compound as clear solution dissolved in 10% ethanol was administered orally at a dose of 10 mg/kg (body weight) to each animal fasted overnight.

[4] = acute toxicity (LD50), Litchfield-Wilcoxon method; set-up: species or system mouse (male ddY); conditions: mouse, in vivo, emulsion in 10% dimethyl sulfoxide
Method: The acute toxicity (LD50) data of compound No. 28 of the present invention as administered to two groups of 5 or 6-week old male ddY mice were obtained by the Litchfield-Wilcoxon method. One group of mice was fasted overnight prior to oral administration. To each group of mice, the test compound was administered in the form of emulsion in 10% dimethyl sulfoxide.

vertebral artery [5] = assay: time course of reduction of the resistance of the vertebral artery in anesthetized dogs (T1/2); assay type: in vivo, dog; conditions: ED30 doses injected
Method: Selected compounds of the present invention were tested for their ability to reduce the resistance of the vertebral artery in anesthetized dogs.
The animals were injected with the ED30 doses of test compounds and the time course of changes in the vasucular resistance were studied as shown schematically in FIG. 1. From the curve shown in FIG. 1, the values of T1/2 (min) (the time to reach 50% of the resistance drop). The results are shown in Table 5, in which the compound numbers correspond to the Example numbers.

SMILES	ED50 (coronary vascular dilative effect) [1]	ED30 (vertebral artery [2])	T1/2 (the time to reach 50% of the resistance drop) (vertebral artery [5])	further results
CC1=NC(C)=C(C(=O)OCC2CC2)C(c2ccccc2[N+](=O)[O-])N1C(=O)OCCN(C)Cc1ccccc1 (centres unmarked) [Compound 1, 3-{2-(N-benzyl-N-methylamino)ethoxycarbonyl}-5-cyclopropylmethoxycarbonyl-2,6-dimethyl-4-(2-nitrophenyl)-3,4-dihydropyrimidine]	0.013 μg/heart	0.58 µg/kg		
CC1=NC(C)=C(C(=O)OCC2CC2)C(c2cccc([N+](=O)[O-])c2)N1C(=O)OCCN(C)Cc1ccccc1 (centres unmarked) [Compound 2]	0.52 μg/heart	0.84 µg/kg		
CCOC(=O)C1=C(C)N=C(C)N(C(=O)OCCN(C)Cc2ccccc2)C1c1ccccc1[N+](=O)[O-] (centres unmarked) [Compound 3]	0.0095 μg/heart	0.75 µg/kg		
COc1ccc(CN(C)CCOC(=O)N2C(C)=NC(C)=C(C(=O)OCC3CC3)C2c2ccccc2[N+](=O)[O-])cc1 (centres unmarked) [Compound 5]	0.036 μg/heart	2.4 µg/kg		
CC1=NC(C)=C(C(=O)OCC2CC2)C(c2ccccc2[N+](=O)[O-])N1C(=O)OCCN(C)Cc1ccccc1Cl (centres unmarked) [Compound 6]	0.0092 μg/heart	1.4 µg/kg		
CC1=NC(C)=C(C(=O)OCC2CC2)C(c2ccccc2[N+](=O)[O-])N1C(=O)OCCN(C)Cc1ccc([N+](=O)[O-])cc1 (centres unmarked) [Compound 7]	0.0012 μg/heart	0.71 µg/kg		
CC1=NC(C)=C(C(=O)OCC2CC2)C(c2ccccc2[N+](=O)[O-])N1C(=O)OCCCCCN(C)Cc1ccccc1 (centres unmarked) [Compound 9]	0.10 μg/heart	3.9 µg/kg		
CC1=NC(C)=C(C(=O)OC(C)C)C(c2ccccc2[N+](=O)[O-])N1C(=O)OCCN(C)Cc1ccccc1 (centres unmarked) [Compound 10]	0.060 μg/heart	0.54 µg/kg		
CC1=NC(C)=C(C(=O)OCC2CC2)C(c2ccccc2[N+](=O)[O-])N1C(=O)OCCN(C)Cc1ccc(F)cc1 (centres unmarked) [Compound 11]	0.030 μg/heart	0.55 µg/kg		
CC1=NC(C)=C(C(=O)OCC2CC2)C(c2ccccc2[N+](=O)[O-])N1C(=O)OCCN1CCc2ccccc2C1 (centres unmarked) [Compound 21]	0.45 μg/heart	2 µg/kg		
CC1=NC(C)=C(C(=O)OCC2CC2)C(c2ccccc2[N+](=O)[O-])N1C(=O)OCCN1CCN(Cc2ccccc2)CC1 (centres unmarked) [Compound 24]	0.01 μg/heart			
CC1=NC(C)=C(C(=O)OC(C)C)C(c2ccccc2[N+](=O)[O-])N1C(=O)OCCc1ccccn1 (centres unmarked) [Compound 27]	0.029 μg/heart			
CC1=NC(C)=C(C(=O)OCC2CC2)C(c2ccccc2[N+](=O)[O-])N1C(=O)OCCN(CCCc1ccccc1)Cc1ccccc1 (centres unmarked) [Compound 28, 3-[2-{N-benzyl-N-(3-phenylpropyl)amino}ethoxycarbonyl]-5-cyclopropylmethoxycarbonyl-2,6-dimethyl-4-(2-nitrophenyl)-3,4-dihydropyrimidine]		4.2 µg/kg		time of maximum blood pressure decrease [3]: 2 h; Blood pressure decrease, 6 hours ([3]; 6 hours): 10-20%; Blood pressure decrease, maximum decrease ([3]; in 2 hrs): 35%; LD50 ([4]; male ddY mice fasted overnight, oral, read-out: LD50 oral): > 1000 mg/kg; LD50 ([4]; male ddY mice, intravenous, read-out: LD50 intravenous): 180 to 200 mg/kg
CC1=NC(C)=C(C(=O)OCC2CC2)C(c2ccccc2[N+](=O)[O-])N1C(=O)OCCN(C/C=C/c1ccccc1)Cc1ccccc1 (centres unmarked) [Compound 29]		2.5 µg/kg	9.5 min	
CC1=NC(C)=C(C(=O)OCC2CC2)C(c2ccccc2[N+](=O)[O-])N1C(=O)OCCN(C/C=C/c1ccccc1)Cc1cccs1 (centres unmarked) [Compound 32]		3.2 µg/kg	7.0 min	
CC1=NC(C)=C(C(=O)OCC2CC2)C(c2ccccc2[N+](=O)[O-])N1C(=O)OCCN(C/C=C/c1ccccc1)C/C=C/c1ccccc1 (centres unmarked) [Compound 33]			30.5 min	
CC1=NC(C)=C(C(=O)OCC2CC2)C(c2cccc([N+](=O)[O-])c2)N1C(=O)OCCN(CCCc1ccccc1)Cc1ccccc1 (centres unmarked) [Compound 36]			12.0 min	
CC1=NC(C)=C(C(=O)OC(C)C)C(c2cccc([N+](=O)[O-])c2)N1C(=O)OCCN(CCCc1ccccc1)Cc1ccccc1 (centres unmarked) [Compound 37]			10.3 min	
CCOC(=O)C1=C(C)N=C(C)N(C(=O)OCCN(CCCc2ccccc2)Cc2ccccc2)C1c1cccc([N+](=O)[O-])c1 (centres unmarked) [Compound 38]		4.2 µg/kg	8.0 min	
CC1=NC(C)=C(C(=O)OC(C)C)C(c2ccccc2[N+](=O)[O-])N1C(=O)OCCN(Cc1ccccc1)Cc1ccc2ccccc2c1 (centres unmarked) [Compound 45]		1.8 µg/kg	15.6 min	
CCCCOC(=O)C1=C(C)N=C(C)N(C(=O)OCCN(Cc2ccccc2)Cc2ccccc2)C1c1ccccc1[N+](=O)[O-] (centres unmarked) [Compound 47]			13.0 min	
CC1=NC(C)=C(C(=O)OCC2CC2)C(c2ccccc2[N+](=O)[O-])N1C(=O)OCCN(Cc1ccccc1)Cc1ccccc1 (centres unmarked) [Compound 52]		1.5 µg/kg	8.0 min	
CC1=NC(C)=C(C(=O)OC(C)C)C(c2ccccc2[N+](=O)[O-])N1C(=O)OCCN(CCCc1ccccc1)c1ccccc1 (centres unmarked) [Compound 53]		2.5 µg/kg	7.7 min	
CC1=NC(C)=C(C(=O)OCC(C)C)C(c2ccccc2[N+](=O)[O-])N1C(=O)OCCN(Cc1ccccc1)Cc1ccccc1 (centres unmarked) [Compound 55]		3.8 µg/kg	9.2 min	
CC1=NC(C)=C(C(=O)OC(C)C)C(c2ccccc2[N+](=O)[O-])N1C(=O)OCCN(CCCc1ccccc1)CCCc1ccccc1 (centres unmarked) [Compound 66]			11.9 min	
CC1=NC(C)=C(C(=O)OC(C)C)C(c2ccccc2[N+](=O)[O-])N1C(=O)OCCN(Cc1ccccc1)Cc1ccccn1 (centres unmarked) [Compound 68]		4.4 µg/kg		
CC1=NC(C)=C(C(=O)OC(C)C)C(c2cccc([N+](=O)[O-])c2)N1C(=O)OCCN(Cc1ccccc1)c1ccccc1 (centres unmarked) [Compound 70]		3 µg/kg		
COC(=O)C1=C(C)N=C(C)N(C(=O)OCCN(Cc2ccccc2)c2ccccc2)C1c1ccccc1[N+](=O)[O-] (centres unmarked) [Compound 71]		5 µg/kg		
